Reference: the supplement of paper PMC10307832

Tests used:
Assay in all cases: relative viability (nuclei count vs DMSO), 5 days (fraction); higher = more cells survive
EPLC-272H = system: EPLC-272H
Outline: (§1)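 The day after seeding in 1536-well plates, lung cancer cell lines were treated by pin tool with a single drug, or with a fixed anchor-drug dose together with five library-drug doses (not always all listed) in √10 steps. After 5 days, a combined fix-and-stain solution (final 0.05% Triton X-100, 1% formaldehyde, 1 ug/ml Hoechst) was added. Nuclei counted on 4× images gave relative viability as treated counts over vehicle counts, reported as the median of duplicate plates.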

SW 900 = system: SW 900
Outline: as §1

HOP-62 = system: HOP-62
Outline: as §1

NCI-H2085 = system: NCI-H2085
Outline: as §1

COR-L 105 = system: COR-L 105
Outline: as §1

NCI-H2009 = system: NCI-H2009
Outline: as §1

NCI-H2170 = system: NCI-H2170
Outline: as §1

NCI-H1666 = system: NCI-H1666
Outline: as §1

HCC-78 = system: HCC-78
Outline: as §1

NCI-H1915 = system: NCI-H1915
Outline: as §1

SK-LU-1 = system: SK-LU-1
Outline: as §1

A-427 = system: A-427
Outline: as §1

NCI-H1793 = system: NCI-H1793
Outline: as §1

NCI-H1792 = system: NCI-H1792
Outline: as §1

UMC-11 = system: UMC-11
Outline: as §1

NCI-H358 = system: NCI-H358
Outline: as §1

NCI-H1944 = system: NCI-H1944
Outline: as §1

LC-2-ad = system: LC-2-ad
Outline: as §1

LU99A = system: LU99A
Outline: as §1

LXF-289 = system: LXF-289
Outline: as §1

NCI-H460 = system: NCI-H460
Outline: as §1

HCC-366 = system: HCC-366
Outline: as §1

`O=c1cc(-c2cccc3c2Sc2ccccc2S3)oc(N2CCOCC2)c1` + CC(=O)c1c(C)c2cnc(Nc3ccc(N4CCNCC4)cn3)nc2n(C2CCCC2)c1=O [Palbociclib] (partner 0.5 µM) showed a relative viability (EPLC-272H; first compound 0.08 µM) of 0.34, a relative viability (EPLC-272H; first compound 0.253 µM) of 0.318 and a relative viability (EPLC-272H; first compound 0.8 µM) of 0.321. For the same compound, the relative viability (EPLC-272H; first compound 2.53 µM) was 0.287, the relative viability (EPLC-272H; first compound 8 µM) was 0.285 and the relative viability (SW 900; first compound 0.253 µM) was 0.557. It also gave a relative viability (SW 900; first compound 0.8 µM) of 0.555, a relative viability (SW 900; first compound 2.53 µM) of 0.492 and a relative viability (SW 900; first compound 8 µM) of 0.469. It also gave a relative viability (HOP-62; first compound 0.08 µM) of 0.465, a relative viability (HOP-62; first compound 0.253 µM) of 0.391 and a relative viability (HOP-62; first compound 0.8 µM) of 0.497. The relative viability (HOP-62; first compound 2.53 µM) was 0.512, the relative viability (HOP-62; first compound 8 µM) was 0.54 and the relative viability (NCI-H2085; first compound 0.08 µM) was 0.431. For the same compound, the relative viability (NCI-H2085; first compound 0.253 µM) was 0.508, the relative viability (NCI-H2085; first compound 0.8 µM) was 0.471 and the relative viability (NCI-H2085; first compound 2.53 µM) was 0.467. For the same compound, the relative viability (NCI-H2085; first compound 8 µM) was 0.412, the relative viability (COR-L 105; first compound 0.08 µM) was 0.349 and the relative viability (COR-L 105; first compound 0.253 µM) was 0.319. The relative viability (COR-L 105; first compound 0.8 µM) was 0.385, the relative viability (COR-L 105; first compound 2.53 µM) was 0.413 and the relative viability (COR-L 105; first compound 8 µM) was 0.416. It also gave a relative viability (NCI-H2009; first compound 0.08 µM) of 0.189, a relative viability (NCI-H2009; first compound 0.253 µM) of 0.232 and a relative viability (NCI-H2009; first compound 0.8 µM) of 0.225. It also gave a relative viability (NCI-H2009; first compound 2.53 µM) of 0.199, a relative viability (NCI-H2009; first compound 8 µM) of 0.213 and a relative viability (NCI-H2170; first compound 0.08 µM) of 0.45. For the same compound, the relative viability (NCI-H2170; first compound 0.253 µM) was 0.482, the relative viability (NCI-H2170; first compound 0.8 µM) was 0.414 and the relative viability (NCI-H2170; first compound 2.53 µM) was 0.354. For the same compound, the relative viability (NCI-H2170; first compound 8 µM) was 0.359, the relative viability (NCI-H1666; first compound 0.08 µM) was 0.638 and the relative viability (NCI-H1666; first compound 0.253 µM) was 0.673. For the same compound, the relative viability (NCI-H1666; first compound 0.8 µM) was 0.679, the relative viability (NCI-H1666; first compound 2.53 µM) was 0.659 and the relative viability (NCI-H1666; first compound 8 µM) was 0.601. It also gave a relative viability (HCC-78; first compound 0.08 µM) of 0.506, a relative viability (HCC-78; first compound 0.253 µM) of 0.458 and a relative viability (HCC-78; first compound 0.8 µM) of 0.427. For the same compound, the relative viability (HCC-78; first compound 2.53 µM) was 0.417, the relative viability (HCC-78; first compound 8 µM) was 0.487 and the relative viability (NCI-H1915; first compound 0.08 µM) was 0.549. It also gave a relative viability (NCI-H1915; first compound 0.253 µM) of 0.527, a relative viability (NCI-H1915; first compound 0.8 µM) of 0.541 and a relative viability (NCI-H1915; first compound 2.53 µM) of 0.509. The relative viability (NCI-H1915; first compound 8 µM) was 0.497, the relative viability (SK-LU-1; first compound 0.08 µM) was 0.397 and the relative viability (SK-LU-1; first compound 0.253 µM) was 0.354. It also gave a relative viability (SK-LU-1; first compound 0.8 µM) of 0.418, a relative viability (SK-LU-1; first compound 2.53 µM) of 0.327 and a relative viability (SK-LU-1; first compound 8 µM) of 0.368. The relative viability (A-427; first compound 0.08 µM) was 0.513, the relative viability (A-427; first compound 0.253 µM) was 0.509 and the relative viability (A-427; first compound 0.8 µM) was 0.49. For the same compound, the relative viability (A-427; first compound 2.53 µM) was 0.502, the relative viability (A-427; first compound 8 µM) was 0.548 and the relative viability (NCI-H1793; first compound 0.08 µM) was 0.21. The relative viability (NCI-H1793; first compound 0.253 µM) was 0.308, the relative viability (NCI-H1793; first compound 0.8 µM) was 0.311 and the relative viability (NCI-H1793; first compound 2.53 µM) was 0.257. It also gave a relative viability (NCI-H1793; first compound 8 µM) of 0.273, a relative viability (NCI-H1792; first compound 0.08 µM) of 0.673 and a relative viability (NCI-H1792; first compound 0.253 µM) of 0.847. It also gave a relative viability (NCI-H1792; first compound 0.8 µM) of 0.635, a relative viability (NCI-H1792; first compound 2.53 µM) of 0.654 and a relative viability (NCI-H1792; first compound 8 µM) of 0.688. For the same compound, the relative viability (UMC-11; first compound 0.08 µM) was 0.338, the relative viability (UMC-11; first compound 0.253 µM) was 0.328 and the relative viability (UMC-11; first compound 0.8 µM) was 0.346. It also gave a relative viability (UMC-11; first compound 2.53 µM) of 0.326, a relative viability (UMC-11; first compound 8 µM) of 0.345 and a relative viability (NCI-H358; first compound 0.08 µM) of 0.135. For the same compound, the relative viability (NCI-H358; first compound 0.253 µM) was 0.144, the relative viability (NCI-H358; first compound 0.8 µM) was 0.13 and the relative viability (NCI-H358; first compound 2.53 µM) was 0.134. It also gave a relative viability (NCI-H358; first compound 8 µM) of 0.152, a relative viability (NCI-H1944; first compound 0.08 µM) of 0.313 and a relative viability (NCI-H1944; first compound 0.253 µM) of 0.329. For the same compound, the relative viability (NCI-H1944; first compound 0.8 µM) was 0.302, the relative viability (NCI-H1944; first compound 2.53 µM) was 0.335 and the relative viability (NCI-H1944; first compound 8 µM) was 0.318. It also gave a relative viability (LC-2-ad; first compound 0.08 µM) of 0.513, a relative viability (LC-2-ad; first compound 0.253 µM) of 0.51 and a relative viability (LC-2-ad; first compound 0.8 µM) of 0.469. The relative viability (LC-2-ad; first compound 2.53 µM) was 0.502, the relative viability (LC-2-ad; first compound 8 µM) was 0.425 and the relative viability (LU99A; first compound 0.08 µM) was 0.413. The relative viability (LU99A; first compound 0.253 µM) was 0.417, the relative viability (LU99A; first compound 0.8 µM) was 0.491 and the relative viability (LU99A; first compound 2.53 µM) was 0.463. It also gave a relative viability (LU99A; first compound 8 µM) of 0.449, a relative viability (LXF-289; first compound 0.08 µM) of 0.61 and a relative viability (LXF-289; first compound 0.253 µM) of 0.603. For the same compound, the relative viability (LXF-289; first compound 0.8 µM) was 0.609, the relative viability (LXF-289; first compound 2.53 µM) was 0.619 and the relative viability (LXF-289; first compound 8 µM) was 0.642. For the same compound, the relative viability (NCI-H460; first compound 0.08 µM) was 0.0971, the relative viability (NCI-H460; first compound 0.253 µM) was 0.159 and the relative viability (NCI-H460; first compound 0.8 µM) was 0.13. The relative viability (NCI-H460; first compound 2.53 µM) was 0.154, the relative viability (NCI-H460; first compound 8 µM) was 0.135 and the relative viability (HCC-366; first compound 0.08 µM) was 0.436. The relative viability (HCC-366; first compound 0.253 µM) was 0.349, the relative viability (HCC-366; first compound 0.8 µM) was 0.487 and the relative viability (HCC-366; first compound 2.53 µM) was 0.401. It also gave a relative viability (HCC-366; first compound 8 µM) of 0.51.
